Experimental findings from publication PMC7587356, “High-Throughput Screening for Inhibitors of the SARS-CoV-2 Protease Using a FRET-Biosensor” (Molecules, 2020) are described below.

For this experiment, the target named is SARS-CoV-2 3CLpro (Severe acute respiratory syndrome coronavirus 2, UniProt P0DTD1). The experiment is described as follows: biochemical. The experiment is classed as biochemical. Further details: Replicate_1 / Replicate_2 / mean / mean (LOPAC_screen_w_protease): unit not given here. The following applies: for inhibition at 5 µM: 4 h.
[1] abbreviates: sheet LOPAC_screen_w_protease, LOPAC1280 primary screen with protease, 5 µM compound, mean of the two replicates, read-out: mean.
The mark [2] stands for this setting: sheet LOPAC_screen_w_protease, LOPAC1280 primary screen with protease, 5 µM compound, replicate 1, read-out: Replicate_1.
The mark [3] stands for this setting: sheet LOPAC_screen_w_protease, LOPAC1280 primary screen with protease, 5 µM compound, replicate 2, read-out: Replicate_2.
Setting [4] is: sheet LOPAC_screen_w_protease, LOPAC1280 primary screen at 5 µM, with protease, replicate 1, read-out: Replicate_1.
[5] abbreviates: sheet LOPAC_screen_w_protease, LOPAC1280 primary screen at 5 µM, with protease, replicate 2, read-out: Replicate_2.
[6] abbreviates: LOPAC1280 primary screen with protease, 5 µM compound, mean of two replicates.
[7] abbreviates: sheet LOPAC_screen_w_protease, primary screen of LOPAC1280 at 5 µM with protease, mean of the two replicates, read-out: mean.
Setting [8] is: sheet LOPAC_screen_w_protease, primary screen of LOPAC1280 at 5 µM with protease, replicate 1, read-out: Replicate_1.
Where [9] appears, read: sheet LOPAC_screen_w_protease, primary screen of LOPAC1280 at 5 µM with protease, replicate 2, read-out: Replicate_2.

Molecules are shown by their SMILES. Counter-ions that a name gives are not always drawn. Like-named read-outs stand apart in the source and are kept apart here.

Turning to `CC[C@@H](CO)NC(=O)[C@@H]1C=C2c3cccc4[nH]cc(c34)C[C@H]2N(C)C1` [Methylergonovine maleate], the inhibition at 5 µM was 1.27% (read-out: Replicate_1), 0.625% (read-out: Replicate_2) and 0.949% (read-out: mean).
The compound `N/C(=N\C(=O)c1nc(Cl)c(N)nc1N)NCc1ccc(Cl)c(Cl)c1` [3',4'-Dichlorobenzamil] yielded a mean (sheet LOPAC_screen_w_protease, primary screen of LOPAC1280 at 5 µM with protease, mean of the two replicates) of 4.038. The compound also had a Replicate_1 (sheet LOPAC_screen_w_protease, primary screen of LOPAC1280 at 5 µM with protease, replicate 1) of 5.158. The compound further yielded a Replicate_2 (sheet LOPAC_screen_w_protease, primary screen of LOPAC1280 at 5 µM with protease, replicate 2) of 2.918.
Take `CC1CN(S(=O)(=O)c2cccc3cnccc23)CCN1.Cl.Cl` (stereo not drawn): under “sheet LOPAC_screen_w_protease, primary screen with protease, mean of two replicates”, the mean came to 2.412. Moreover, the Replicate_1 (sheet LOPAC_screen_w_protease, primary screen with protease, replicate 1) was found to be 3.532. Also, where the note is “sheet LOPAC_screen_w_protease, primary screen with protease, replicate 2”, the Replicate_2 came out at 1.292.
On to `CC[C@H](C)C(=O)O[C@H]1CCC=C2C=C[C@H](C)[C@H](CC[C@@H]3C[C@@H](O)CC(=O)O3)[C@H]21` [Mevastatin], for which the inhibition at 5 µM is, setting by setting: under setting [1], 4.58%; under setting [2], 3.98%; under setting [3], 5.17%.
On to `N#C/C(=C\c1ccc(O)c(O)c1)C(=O)NCc1ccccc1` [Tyrphostin AG 490], for which the inhibition at 5 µM came out at 2.61% (sheet LOPAC_screen_w_protease, primary screen with protease, compound at 5 µM, mean of two replicates, read-out: mean); 3.18% (sheet LOPAC_screen_w_protease, primary screen with protease, compound at 5 µM, replicate 1, read-out: Replicate_1); 2.05% (sheet LOPAC_screen_w_protease, primary screen with protease, compound at 5 µM, replicate 2, read-out: Replicate_2).
On to `C=CCc1ccccc1OCC(O)CNC(C)C` (stereo not drawn) [Alprenolol hydrochloride], for which the inhibition at 5 µM reads like this: (sheet LOPAC_screen_w_protease, primary screen with protease, 5 µM, mean of two replicates, read-out: mean) 0.137%; (sheet LOPAC_screen_w_protease, primary screen with protease, 5 µM, replicate 1, read-out: Replicate_1) 0.164%; (sheet LOPAC_screen_w_protease, primary screen with protease, 5 µM, replicate 2, read-out: Replicate_2) 0.11%.
Turning to `O=c1c2ccccc2nc2n1CCc1c-2[nH]c2ccccc12` [Rutaecarpine], the inhibition at 5 µM is 0.598% (sheet LOPAC_screen_w_protease, LOPAC1280 primary screen at 5 µM, with protease, mean of the two replicates, read-out: mean); 1.54% under setting [4]; -0.348% under setting [5].
Consider `CNc1ncnc2c1ncn2[C@@H]1O[C@H](CO)[C@@H](O)[C@H]1O` [N6-Methyladenosine], for which, under “sheet LOPAC_screen_w_protease, primary screen with protease, compound at 5 µM, mean of two replicates”, the mean is 2.9788. Moreover, the Replicate_1 (sheet LOPAC_screen_w_protease, primary screen with protease, compound at 5 µM, replicate 1) came to 2.994. In addition, under “sheet LOPAC_screen_w_protease, primary screen with protease, compound at 5 µM, replicate 2”, the Replicate_2 worked out at 2.964.
With `CC[C@H](NC(=O)c1c(C)c(-c2ccccc2)nc2ccccc12)c1ccccc1` [SB 222200], the inhibition at 5 µM was 1.71% (LOPAC1280 primary screen with protease, 5 µM compound, replicate 1, read-out: Replicate_1 (LOPAC_screen_w_protease)) and 1.28% (LOPAC1280 primary screen with protease, 5 µM compound, replicate 2, read-out: Replicate_2 (LOPAC_screen_w_protease)). Further, the “mean (LOPAC_screen_w_protease)” value under setting [6] amounted to 1.495.
Turning to `CN1CCc2ccccc2Cc2[nH]c3ccccc3c2CC1` [LE 300], the Replicate_1 is recorded as 0.4919, the Replicate_2 was 1.5197 and the mean amounted to 1.0058.
On to `CC1Cc2cc3c(cc2C(c2ccc(N)cc2)=NN1)OCO3.Cl` (stereo not drawn) [GYKI 52895], for which the mean (sheet LOPAC_screen_w_protease, LOPAC1280 primary screen with protease, 5 µM compound, mean of the two replicates) was 5.365. The compound also returned a Replicate_1 (sheet LOPAC_screen_w_protease, LOPAC1280 primary screen with protease, 5 µM compound, replicate 1) of 5.021. Also, the Replicate_2 (sheet LOPAC_screen_w_protease, LOPAC1280 primary screen with protease, 5 µM compound, replicate 2) stood at 5.7079.
As to `Cc1ncc(CNC(=O)N(CCCl)N=O)c(N)n1` [Nimustine hydrochloride], the inhibition at 5 µM under setting [7] is 3.43%, the inhibition at 5 µM under setting [8] stood at 3.89% and the inhibition at 5 µM under setting [9] was 2.97%.
On to `C[C@@]12N[C@@H](Cc3ccccc31)c1ccccc12.O=C(O)/C=C\C(=O)O` [(-)-MK-801 hydrogen maleate], for which the “mean (LOPAC screen with protease)” value (sheet LOPAC_screen_w_protease, primary screen at 5 µM, mean of two replicates) was 6.636. Further, the “Replicate_1 (LOPAC screen with protease)” value (sheet LOPAC_screen_w_protease, primary screen at 5 µM, replicate 1) is on record as 5.967. Further, the “Replicate_2 (LOPAC screen with protease)” value (sheet LOPAC_screen_w_protease, primary screen at 5 µM, replicate 2) was determined as 7.306.
Consider `O=C1Nc2ccccc2/C1=C1/Nc2ccccc2/C1=N\O` [Indirubin-3'-oxime], for which the “mean (LOPAC_screen_w_protease)” value under setting [6] is 1.392. For the same compound, the “Replicate_1 (LOPAC_screen_w_protease)” value (LOPAC1280 primary screen with protease, 5 µM compound, replicate 1) is given as 2.012. Under “LOPAC1280 primary screen with protease, 5 µM compound, replicate 2”, the “Replicate_2 (LOPAC_screen_w_protease)” value stood at 0.7725.
Consider `Oc1c2ccccc2c2c3c(cccc13)N=N2` [SP600125], for which the inhibition at 5 µM runs as follows: (sheet LOPAC_screen_w_protease, LOPAC1280 primary screen at 5 µM, with protease, mean of two replicates, read-out: mean) -1.9%; under setting [4], 0.641%; under setting [5], -4.45%.
With `CC(C)N(CCC(C(N)=O)(c1ccccc1)c1ccccn1)C(C)C` (stereo not drawn) [Disopyramide], the inhibition at 5 µM by setting is: under setting [7], 3.48%; under setting [8], 4.56%; under setting [9], 2.4%.
As to `CC(C)(C)c1cc(/C=C(\C#N)C(N)=S)cc(C(C)(C)C)c1O` [Tyrphostin AG 879], the inhibition at 5 µM runs as follows: under setting [1], 5.5%; under setting [2], 5.93%; under setting [3], 5.07%.
